Measurements published in patent US20070054916A1, “Aryl nitrogen-containing bicyclic compounds and methods of use” (Amgen Inc., priority 2004, published 2007).

Tested on: production of TNF by monocytes activated with bacterial lipopolysaccharide (LPS)
Assay: Lipopolysaccharide-activated monocyte TNF production assay
Assay type: cell-based
Details: Homo sapiens, read-out: IC50 values in the monocyte assay (LPS induced TNF release)
Method in brief: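 Adherent human PBMC-derived monocytes (~70%) in DMEM/2% FCS were pre-incubated 60 min with nine two-fold compound dilutions, then stimulated with E. coli K532 LPS (added as 30 ng/ml solution) for 4 h at 37 °C. Supernatant TNF-α was measured by sandwich ELISA. IC50 was taken from a polynomial fit of TNF versus compound concentration.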

SMILES	IC50 [µM]
Cc1ccc(C(=O)Nc2cc(C(=O)N3CCN(C)CC3)cc(C(F)(F)F)c2)cc1-c1ccc2nc(N)ncc2c1 [Example 158, 3-(2-amino-6-quinazolinyl)-4-methyl-N-(3-((4-methyl-1-piperazinyl)carbonyl)-5-(trifluoromethyl)phenyl)benzamide]	≤ 25
Cc1ccc(C(=O)Nc2cc(CN3CCN(C)CC3)cc(C(F)(F)F)c2)cc1-c1ccc2nc(N)ncc2c1 [Example 159, 3-(2-amino-6-quinazolinyl)-4-methyl-N-(3-((4-methyl-1-piperazinyl)methyl)-5-(trifluoromethyl)phenyl)benzamide]	≤ 25
Cc1ccc(C(=O)OCc2ccccc2)cc1-c1ccc2nc(N)ncc2c1 [Example 160, phenylmethyl 3-(2-amino-6-quinazolinyl)-4-methylbenzoate]	≤ 25
CN(C)CCCN(C)c1ccc(C(F)(F)F)cc1NC(=O)c1cc(-c2ccc3nc(N)ncc3c2)cn(C)c1=O [Example 164, 5-(2-amino-6-quinazolinyl)-N-(2-((3-(dimethylamino)propyl)(methyl)amino)-5-(trifluoromethyl)phenyl)-1-methyl-2-oxo-1,2-dihydro-3-pyridinecarboxamide]	≤ 25
CNc1ncc2cc(-c3cc(C(=O)Nc4cccc(C(F)(F)F)c4)ccc3C)cnc2n1 [Example 167, 4-methyl-3-(2-(methylamino)pyrido[2,3-d]pyrimidin-6-yl)-N-(3-(trifluoromethyl)phenyl)benzamide]	≤ 25
CNc1ncc2cc(-c3cc(C(=O)NCc4ccccn4)ccc3C)cnc2n1 [Example 185, 4-methyl-3-(2-(methylamino)pyrido [2,3-d]pyrimidin-6-yl)-N-(2-pyridinylmethyl) benzamide]	≤ 25
CNc1ncc2cc(-c3cc(C(=O)Nc4cc(C(C)(C)C)ccc4OC)ccc3C)cnc2n1 [Example 186]	≤ 25
CNc1ncc2cc(-c3cc(C(=O)Nc4ccc(NC(=O)NCCN5CCOCC5)c(C(F)(F)F)c4)ccc3C)cnc2n1 [Example 187, 4-methyl-3-(2-(methylamino)pyrido [2,3-d]pyrimidin-6-yl)-N-(4-((((2-(4-morpholinyl)ethyl)amino)carbonyl)amino)-3-(trifluoromethyl)phenyl)benzamide]	≤ 25
CCN(CC)CCNC(=O)Nc1ccc(NC(=O)c2ccc(C)c(-c3cnc4nc(NC)ncc4c3)c2)cc1C(F)(F)F [Example 188]	≤ 25
CNc1ncc2cc(-c3cc(C(=O)Nc4cc(C(=O)NCCN5CCOCC5)cc(C(F)(F)F)c4)ccc3C)cnc2n1 [Example 189, 4-methyl-3-(2-(methylamino)pyrido [2,3-d]pyrimidin-6-yl)-N-(3-(((2-(4-morpholinyl)ethyl)amino)carbonyl)-5-(trifluoromethyl)phenyl)benzamide]	≤ 25
CCN(CC)CCNC(=O)c1cc(NC(=O)c2ccc(C)c(-c3cnc4nc(NC)ncc4c3)c2)cc(C(F)(F)F)c1 [Example 190, N-(3-(((2-(diethylamino)ethyl)amino)carbonyl)-5-(trifluoromethyl)phenyl)-4-methyl-3-(2-(methylamino)pyrido [2,3-d]pyrimidin-6-yl)benzamide]	≤ 25
CCN(CC)S(=O)(=O)c1ccc(OC)c(NC(=O)c2ccc(C)c(-c3cnc4nc(NC)ncc4c3)c2)c1 [Example 191, N-(5-((diethylamino)sulfonyl)-2-(methyloxy)phenyl)-4-methyl-3-(2-(methylamino)pyrido [2,3-d]pyrimidin-6-yl)benzamide]	≤ 25
CNc1ncc2cc(-c3cc(C(=O)Nc4cc(C(C)(C)C)ccc4NC(=O)CN4CCOCC4)ccc3C)cnc2n1 [Example 192]	≤ 25
CNc1ncc2cc(-c3cc(C(=O)Nc4cc(C(F)(F)F)ccc4N(C)CCCN(C)C)ccc3C)cnc2n1 [Example 193, N-(2-((3-(dimethylamino)propyl)(methyl)amino)-5-(trifluoromethyl)phenyl)-4-methyl-3-(2-(methylamino)pyrido[2,3-d]pyrimidin-6-yl)benzamide]	≤ 25
Nc1ncc2cc(-c3cc(NC(=O)c4cccc(C(F)(F)F)c4)ccc3C(F)(F)F)ccc2n1 [Example 196]	≤ 25
Cc1c(NC(=O)c2cccc(C(F)(F)F)c2)cccc1-c1ccc2nc(N)ncc2c1 [Example 197, N-(3-(2-amino-6-quinazolinyl)-2-methylphenyl)-3-(trifluoromethyl)benzamide]	≤ 25
CNc1ncc2cc(-c3cccc(NC(=O)c4cccc(C(F)(F)F)c4)c3C)cnc2n1 [Example 198, N-2-methyl-3-(2-(methylamino)pyrido[2,3-d]pyrimidin-6-yl)-N-(3-(trifluoromethyl)phenyl)benzamide]	≤ 25
CNc1ncc2cc(-c3cc(NC(=O)c4cccc(C(F)(F)F)c4)ccc3C)cnc2n1 [Example 199, N-(4-methyl-3-(2-(methylamino)pyrido[2,3-d]pyrimidin-6-yl)phenyl)-3-(trifluoromethyl) benzamide]	≤ 25
CNc1ncc2cc(-c3cc(NC(=O)c4cc(C(F)(F)F)cc(C(F)(F)F)c4)ccc3C)cnc2n1 [Example 200, N-(4-methyl-3-(2-(methylamino)pyrido[2,3-d]pyrimidin-6-yl)phenyl)-3,5-bis(trifluoromethyl)benzamide]	≤ 25

SMILES	IC50 [µM]
CNc1ncc2cc(-c3cc(NC(=O)c4cccc(Cl)c4Cl)ccc3C)cnc2n1 [Example 201, 2,3-dichloro-N-(4-methyl-3-(2-(methylamino)pyrido[2,3-d]pyrimidin-6-yl)phenyl)benzamide]	≤ 25
CNc1ncc2cc(-c3cc(NC(=O)c4cccc(C(F)(F)F)c4F)ccc3C)cnc2n1 [Example 202]	≤ 25
CNc1ncc2cc(-c3cc(NC(=O)c4cccc5c4OC(F)(F)O5)ccc3C)cnc2n1 [Example 214, 2,2-difluoro-N-(4-methyl-3-(2-(methylamino)pyrido[2,3-d]pyrimidin-6-yl)phenyl)-1,3-benzodioxole-4-carboxamide]	≤ 25
CNc1ncc2cc(-c3cc(NC(=O)c4cc(OC)c(OC)c(OC)c4)ccc3C)cnc2n1 [Example 216, N-(4-methyl-3-(2-(methylamino)pyrido[2,3-d]pyrimidin-6-yl)phenyl)-3,4,5-tris(methyloxy)benzamide]	≤ 25
CNc1ncc2cc(-c3cc(NC(=O)c4cc(F)cc(C(F)(F)F)c4)ccc3C)cnc2n1 [Example 217, 3-fluoro-N-(4-methyl-3-(2-(methylamino)pyrido[2,3-d]pyrimidin-6-yl)phenyl)-5-(trifluoromethyl) benzamide]	≤ 25
CNc1ncc2cc(-c3cccc(NC(=O)c4cc(F)cc(C(F)(F)F)c4)c3C)cnc2n1 [Example 219]	≤ 25
Cc1c(NC(=O)c2cc(C(F)(F)F)cc(C(F)(F)F)c2)cccc1-c1ccc2nc(N)ncc2c1 [Example 220, N-(3-(2-amino-6-quinazolinyl)-2-methylphenyl)-3,5-bis(trifluoromethyl)benzamide]	≤ 25
CNc1ncc2cc(-c3cccc(NC(=O)c4cc(C(F)(F)F)cc(C(F)(F)F)c4)c3C)cnc2n1 [Example 221]	≤ 25
Cc1c(NC(=O)c2cc(C(F)(F)F)ccc2F)cccc1-c1ccc2nc(N)ncc2c1 [Example 222, N-(3-(2-amino-6-quinazolinyl)-2-methylphenyl)-2-fluoro-5-(trifluoromethyl) benzamide]	≤ 25
CNc1ncc2cc(-c3cccc(NC(=O)c4cc(C(F)(F)F)ccc4F)c3C)cnc2n1 [Example 223, 2-fluoro-N-(2-methyl-3-(2-(methylamino)pyrido[2,3-d]pyrimidin-6-yl)phenyl)-5-(trifluoromethyl) benzamide]	≤ 25
Cc1cc(C)c(-c2ccc3nc(N)ncc3c2)c(C)c1NC(=O)c1cccc(C(F)(F)F)c1 [Example 224, N-(3-(2-amino-6-quinazolinyl)-2,4,6-trimethylphenyl)-3-(trifluoromethyl) benzamide]	≤ 25
Cc1ccc(C(=O)Nc2nc(C)c(C)s2)cc1-c1ccc2nc(N)ncc2c1 [Example 225, 3-(2-amino-6-quinazolinyl)-N-(4,5-dimethyl-1,3-thiazol-2-yl)-4-methylbenzamide]	≤ 25
Cc1ccc(C(=O)Nc2ccc(C(C)(C)C)c(NC(=O)CN(C)C)c2)cc1-c1ccc2nc(N)ncc2c1 [Example 227, 3-(2-amino-6-quinazolinyl)-N-(4-(1,1-dimethylethyl)-3-((N,N-dimethylglycyl)amino)phenyl)-4-methylbenzamide]	≤ 25
Cc1ccc(C(=O)Nc2cc(C(F)(F)F)ccc2N2CCS(=O)(=O)CC2)cc1-c1ccc2nc(N)ncc2c1 [Example 228, 3-(2-amino-6-quinazolinyl)-N-(2-(1,1-dioxido-4-thiomorpholinyl)-5-(trifluoromethyl)phenyl)-4-methylbenzamide]	≤ 25
CCN(CC)S(=O)(=O)c1ccc(OC)c(NC(=O)c2ccc(C)c(-c3ccc4nc(N)ncc4c3)c2)c1 [Example 231, 3-(2-amino-6-quinazolinyl)-N-(5-((diethylamino)sulfonyl)-2-(methyloxy)phenyl)-4-methylbenzamide]	≤ 25
Cc1ccc(C(=O)Nc2cccc(Cl)c2Cl)cc1-c1ccc2nc(N)ncc2c1 [Example 232, 3-(2-amino-6-quinazolinyl)-N-(2,3-dichlorophenyl)-4-methylbenzamide]	≤ 25
COc1ccc(NC(=O)c2ccc(C)c(-c3ccc4nc(N)ncc4c3)c2)c(OC)n1 [Example 233, 3-(2-amino-6-quinazolinyl)-N-(2,6-bis(methyloxy)-3-pyridinyl)-4-methylbenzamide]	≤ 25
CC(=O)Nc1ccc(C(F)(F)F)cc1NC(=O)c1ccc(C)c(-c2ccc3nc(N)ncc3c2)c1 [Example 234, N-(2-(acetylamino)-5-(trifluoromethyl)phenyl)-3-(2-amino-6-quinazolinyl)-4-methylbenzamide]	≤ 25
COc1ccc(OCCCN2CCN(C)CC2)cc1NC(=O)c1ccc(C)c(-c2ccc3nc(N)ncc3c2)c1 [Example 235]	≤ 25
